# Test results taken from patent publication US5869081A, “Progesterone vaginal ring for treatment of infertility” (priority 1996, dated 1999).
# Assays:
# [1] = tested on: endometrium; experiment: histology / dating of endometrial biopsies (Example I); format: in vivo, human
# Description: Endometrial biopsies were performed with an endometrial suction curette (Z-Sampler, California) on day +3 in six patients. Three patients using the 10 mg vaginal ring had endometrial biopsies repeated on day +7. […] Steril. 1:3-25 was used for assessing the day of the menstrual cycle. Endometrial tissue was processed routinely to obtain hematoxylin and eosin stained sections. These were coded and examined by the same pathologist, who was blinded for the hormone replacement therapy of each patient.
# [2] = tested on: functionally agonadal women; experiment: clinical pregnancy and nidation rates in an oocyte donation cycle (Example III); format: in vivo, human
# Description: Seventeen functionally agonadal women used a progesterone containing vaginal ring having an in vitro release rate of 10 mg per day as the only source of progesterone during an oocyte donation cycle. When pregnancy was documented on day 12 after embryo transfer, the 10 mg ring was replaced by a vaginal ring having an in vitro release rate of 15 mg, which was left in place until the twelfth week of pregnancy. In the same period of time eighteen other women received daily i.m. injections of 100 mg progesterone. The decision to use one or the other route of administration was not randomized.
# [3] = tested on: normogonadal women undergoing IVF-ET; experiment: clinical pregnancy rate in IVF-ET (Example IV); format: in vivo, human; settings: daily i.m. injection of 50 mg, 10/26
# Description: Forty-nine normogonadal women undergoing IVF-ET were randomly assigned to receive a progesterone containing vaginal ring having an in vitro release rate of 10 mg per day (n=23) or a daily intramuscular (i.m.) injection of 50 mg progesterone (n=26). In order to induce multiple follicle growth, subjects received a sequential treatment with a gonadotropin releasing hormone (GnRH) agonist, human menopausal gonadotropin (hMG) and human […] gonadotropin (hCG). Oocytes were aspirated thirty-six hours after administering hCG, and treatment with progesterone, either i.m. or by vaginal ring, began at this time. Progesterone treatment continued for a maximum of seven weeks.
# [4] = human, in vivo
# [5] = tested on: rat embryos at the two cell stage; settings: cultured in vitro in the presence vs absence of hormone; cited from earlier work
# [6] = oral administration; rapid clearance by the liver; cited from earlier work
smiles,measurement,setting,value
CC(=O)[C@H]1CC[C@H]2[C@@H]3CCC4=CC(=O)CC[C@]4(C)[C@H]3CC[C@]12C [progesterone],circulatory progesterone level with adequate biological effect on the endometrium,[1]; intravaginal delivery,12-15 nmol/L
same,advanced endometrial pattern,[1]; women supplemented with intramuscular progesterone,did not exhibit this advanced pattern
same,clinical pregnancy rate,"[2]; daily i.m. injections of 100 mg, eighteen women",38.9%
same,nidation rate (total number of gestational sacs/total number of embryos transferred),"[2]; i.m. progesterone 100 mg daily, 9/66",13.6%
same,clinical pregnancy rate,[3],38.4%
same,systemic side effects,[4],no systemic side effects
same,development to the blastocyst stage,[5],better development to the blastocyst stage
same,bioavailability in the circulation,[6],low bioavailability
